For data set [1] the following is noted: water; cited from earlier work.
In data set [2] the test system is patients. Briefly: Clinical use of MSM ophthalmic drops by the inventor. The data set is classed as in vivo, human.
Excerpt: We have used aqueous solutions of MSM filtered, sterilized, and mixed with insulin.
Data set [3] concerns individuals with macular edema. Particulars: fluorescein angiography; cited from earlier work.
For data set [4] the following is noted: in vivo; cited from earlier work.
Data set [5] relates to patients. Particulars: supplementation; cited from earlier work.
The conditions of data set [6]: after oral intake; cited from earlier work.
For data set [7], the system named is dry mouth and dry eyes conditions. Briefly: Clinical use of ADT orally and as eye drops. The data set is classed as in vivo. Particulars: 25 mg orally and nanograms concentration in eye drops. The procedure: We have used ADT 25 mg orally and ADT in nanograms concentration in liquid ophthalmic eye drops with success in these conditions, especially, those on chemotherapy, menopausal women, and chronic smokers with dry mouth and dry eyes conditions. There is secretory dysfunction associated with RPE and Muller cells which are needed for proper functioning of the photoreceptors by removing ROS. This can be one of the important non toxic oral and eye drops for the treatment of age related macular degeneration (Ben-Mandi M H, Gozin A, Driss F, Andrieu V, Christen M O, Pasquier C. Anethole dithiolethione regulates oxidant-induced tyrosine kinase activation in endothelial cells. Antioxid Redox Signal. 2000 Winter, 2 (4):789-99). […] (Han S F, Yao T T, Zhang X X, Gan L, Zhu C, Yu H Z, Gan Y. Int J Pharm. Lipid-based formulations to enhance oral bioavailability of the poorly water-soluble drug anetholtrithione: effects of lipid composition and formulation. 2009 Sep. 8; 379(1):18-24. Epub 2009 Jun. 7.).

Data set [8] deals with patients with neovascular ARMS. Particulars: intravitreous 1.25 mg injections; cited from earlier work.
For data set [9], the system named is photoreceptor cell. To be noted: in vitro model; cited from earlier work.
The conditions of data set [10]: cited from earlier work.
For data set [11], the system named is oxidized cells. To be noted: H2O2 induced, insulin pretreatment; cited from earlier work.
The conditions of data set [12]: local application incl. conjunctival sac, scalp, gums, wounds. An excerpt:
The present invention formulations contain only 0.10 to 1.00 IU per drop which the dosage can be increased or the dosage can be decreased depending upon the disease states.

For the compound `CS(C)(=O)=O` [MSM, Methylsulfonylmethane], the solubility result in [1] is listed as “soluble in water”. Also, the treatment outcome in data set [2] (aqueous MSM mixed with insulin as eye drops, ARMD, retinitis pigmentosa, cataract, dry eye, glaucoma) is given as “good results”. Further, the patient-reported vision entry in [2] (ophthalmic drops, aged, Lyme disease and cancer patients) is given as “their vision had improved”. Turning to `CC(=O)Nc1nnc(S(N)(=O)=O)s1` [acetazolamide], in [3], the “leakage of dye into the photoreceptor area” value is listed as “inhibited”. Turning to Insulin detemir, the “Peak action in hours” value in data set [4] is 6 to 8 h. With Insulin glargine, in data set [4], the “Peak action in hours” value was 8 to 16 h. For “NPH (isophane): intermediate-acting NPH (isophane) insulin”, in data set [4], the “Peak action in hours” value was 6 to 10 h. For “Regular (soluble): short-acting regular (soluble) insulin”, the “Peak action in hours” value in data set [4] is 2 to 3 h. Regarding Vitamin A, the postponement of blindness in data set [5] is listed as around 10 years. Besides, the “time to peak blood concentration” value in data set [6] is listed as “one”.

For the compound anethole dithiolethione [ADT], the treatment outcome in data set [7] is reported as “success”. In the case of bevacizumab, in data set [8], the “patients improved 10 or more letters” value is “more than 45%”. brimonidine tartrate: the photoreceptor cell degeneration entry in data set [9] is “prevent photoreceptor cell degeneration”. In the case of hyaluronic acid, the pH in data set [10] (0.1% solution) is given as 6.0-7.5. Further, the “water contained relative to own weight” value in [10] (hydrated) was “up to 1,000 fold”. Turning to insulin, the lipid peroxidation entry in data set [11] is “significantly inhibited”. Besides, the “change of blood sugar levels (hypoglycemic effect)” value in data set [12] is listed as “did not change the blood sugar levels”.

(Values after patent US20110052678A1, “METHOD FOR TREATING AGE RELATED MACULAR DEGENERATION” (priority 2010, published 2011).)
